Measurements published in US11891350B2, “Compounds for use in the treatment or prophylaxis of pain, inflammation and/or autoimmunity” (NOVAREMED LTD., priority 2019, dated 2024).
Read-outs that look alike come from different tables or passages of the source.

How the values were obtained:
[1] = molecular target: BLK tyrosine kinase (Homo sapiens, UniProt P51451); assay: Effect on BLK tyrosine kinase activity; assay type: biochemical
[2] = Bioavailability and pharmacokinetics of polymorphs 1 and 2 after single oral dose, cross-over, in dogs; assay type: in vivo, male Beagle dog; conditions: for LS geometric mean Cmax: corrected to a 60.0-mg dose; for adverse reactions to the oral administration: single oral dose 60 mg/kg
Procedure: This study was designed to obtain blood plasma samples to enable the comparison of the bioavailability and pharmacokinetics of two different polymorphs 1 and 2 following single-dose oral administration to six dogs. A cross-over design was used with three dogs treated according to sequence 1 (polymorph 2 after 1) and three dogs according to sequence 2 (polymorph 1 after 2) with a one-week washout period between treatments.
Each polymorph was prepared as a suspension in a vehicle of 0.5% w/v HPMC K15M/0.5% w/v Tween 80 in sterile water.
Six male Beagle dogs (Tattoo numbers: 4986, 0964, 3611, 2380, 5002 and 1122 on-study animal numbers: 001 M, 002M, 003M, 004M, 005M and 006M, respectively) bodyweight 9.5-11.5 kg, aged 2-7 years at dosing, currently held as part of a colony of animals (Colony number: 190431) were used on this study. Dogs were originally obtained from Marshall Farms USA Inc. (NY, USA) or Envigo RMS, and were bred for use in scientific procedures. During pre-trial and on-study periods, the animals were group-housed in caging appropriate to the species. Prior to acceptance for use on study, animals were subject to a veterinary examination and the results found to be satisfactory. Holding and study areas had automatic control of light cycles and temperature. Light hours were 0700-1900 h. Ranges of temperature and humidity measured during the study were 17.0-21.8° C. and 23.4-83.07%, respectively. All animals were weighed prior to each dose administration and the bodyweights recorded. With the exception of a period of fasting from overnight predose until 4 hours post dose, a daily allowance of 200-300 g of standard laboratory diet of known formulation (SDS D3 (E) SQC) was available. Mains quality tap water was available ad libitum.
The formulation was always prepared on the morning of dose administration. Each polymorph was prepared as a suspension at a concentration of 12 mg/mL in a vehicle of 0.5% w/v HPMC K15M/0.5% w/v Tween 80 in sterile water for injection. The required volume of vehicle was added to an appropriate formulation container.
Each group of 3 male dogs, received a single oral dose administration of a polymorph at a target dose level of 60 mg/kg. Following a wash out period of 1 week each group of 3 male dogs received the alternative polymorph.
For each group, whole blood samples (ca 1.0 mL) were collected from the jugular veins in to NaF/EDTA tubes at the following time points:
Times given above were target times which were adhered to as closely as possible. Actual times of sample collection (and of dosing) were recorded (Table 2) and used in the evaluation of pharmacokinetic parameters. Immediately following collection, blood samples were placed on wet ice. As soon as practically possible the blood samples were centrifuged (+4° C., 1500 g, 10 min). The resulting plasma was divided into two aliquots (vial A: 100 μl plasma, vial B: remaining volume) and stored in appropriately labelled polypropylene tubes in a freezer set to maintain a temperature of −80° C. until shipment. All plasma samples, remaining dose formulation and dose aliquots were stored in a freezer set to maintain a temperature of −80° C. until shipment.
Pharmacokinetic (PK) parameters were estimated using Phoenix pharmacokinetic software using a non-compartmental approach consistent with the oral route of administration. All parameters were generated from polymorph 1 and 2 individual concentrations in plasma. Parameters were estimated using nominal sampling times relative to the start of each dose administration within an allowable deviation range (±10%). Predose samples below the limit of quantification (0.5 ng/mL) were assumed to be 0 for the PK analysis.
The area under the polymorph 1 and 2 plasma concentration versus time curve (AUC) was calculated using the linear trapezoidal method with linear interpolation. […]

[3] = molecular target: LynB tyrosine kinase (Homo sapiens, UniProt P07948); assay: Effect on LynB tyrosine kinase activity; assay type: biochemical
Chain of LynB tyrosine kinase (P07948 1-491 isoform P07948-2): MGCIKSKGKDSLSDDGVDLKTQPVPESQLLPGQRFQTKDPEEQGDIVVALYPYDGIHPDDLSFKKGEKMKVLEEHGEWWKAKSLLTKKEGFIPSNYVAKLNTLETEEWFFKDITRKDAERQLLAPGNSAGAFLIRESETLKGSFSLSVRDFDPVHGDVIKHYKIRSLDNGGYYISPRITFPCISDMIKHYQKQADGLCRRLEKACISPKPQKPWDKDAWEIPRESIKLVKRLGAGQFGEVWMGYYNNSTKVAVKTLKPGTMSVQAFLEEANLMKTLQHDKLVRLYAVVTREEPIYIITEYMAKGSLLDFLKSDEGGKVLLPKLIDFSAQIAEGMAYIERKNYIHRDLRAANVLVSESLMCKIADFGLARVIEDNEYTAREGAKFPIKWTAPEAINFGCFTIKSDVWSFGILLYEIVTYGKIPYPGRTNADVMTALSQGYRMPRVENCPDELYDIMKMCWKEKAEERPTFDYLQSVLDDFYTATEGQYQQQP

[4] = molecular target: LynA tyrosine kinase (Homo sapiens, UniProt P07948); assay: Effect on LynA tyrosine kinase activity; assay type: biochemical
Chain of LynA tyrosine kinase (P07948 whole entry): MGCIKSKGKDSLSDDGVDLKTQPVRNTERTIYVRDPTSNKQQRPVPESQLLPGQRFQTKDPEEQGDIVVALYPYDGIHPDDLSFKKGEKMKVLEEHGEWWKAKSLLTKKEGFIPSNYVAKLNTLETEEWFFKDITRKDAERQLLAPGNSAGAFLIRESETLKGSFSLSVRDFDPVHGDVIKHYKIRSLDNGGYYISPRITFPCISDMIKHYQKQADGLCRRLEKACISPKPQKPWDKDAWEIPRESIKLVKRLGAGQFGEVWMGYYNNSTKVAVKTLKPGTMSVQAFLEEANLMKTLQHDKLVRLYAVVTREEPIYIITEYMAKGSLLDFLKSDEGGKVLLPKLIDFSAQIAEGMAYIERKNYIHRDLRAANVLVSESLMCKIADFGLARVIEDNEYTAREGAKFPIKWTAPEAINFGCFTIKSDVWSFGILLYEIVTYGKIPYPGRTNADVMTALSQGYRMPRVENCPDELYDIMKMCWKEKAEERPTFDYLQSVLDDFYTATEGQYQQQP

[5] = Gravimetric Vapour Sorption (GVS); assay type: physicochemical; conditions: for change of polymorphic form on GVS cycling: hysteresis between cycles / XRPD after the cycles; for weight gain to 80% RH (GVS): first adsorption cycle
Procedure: Gravimetric Vapour Sorption (GVS)
Approximately 10 mg of sample was placed into a wire-mesh vapour sorption balance pan and loaded into an ‘IgaSorp’ vapour sorption balance (Hiden Analytical Instruments). The sample was then dried by maintaining a 0% humidity environment until no further weight change was recorded. Subsequently, the sample was subjected to a ramping profile from 0-90% RH at 10% RH increments, maintaining the sample at each step until equilibration had been attained (99% step completion). Upon reaching equilibration, the % RH within the apparatus was ramped to the next step and the equilibration procedure repeated. After completion of the sorption cycle, the sample was then dried using the same procedure. The weight change during the sorption/desorption cycles were then monitored, allowing for the hygroscopic nature of the sample to be determined.

[6] = male Beagle dog plasma, oral suspension, target 60 mg/kg

Chain of BLK tyrosine kinase (P51451 whole entry): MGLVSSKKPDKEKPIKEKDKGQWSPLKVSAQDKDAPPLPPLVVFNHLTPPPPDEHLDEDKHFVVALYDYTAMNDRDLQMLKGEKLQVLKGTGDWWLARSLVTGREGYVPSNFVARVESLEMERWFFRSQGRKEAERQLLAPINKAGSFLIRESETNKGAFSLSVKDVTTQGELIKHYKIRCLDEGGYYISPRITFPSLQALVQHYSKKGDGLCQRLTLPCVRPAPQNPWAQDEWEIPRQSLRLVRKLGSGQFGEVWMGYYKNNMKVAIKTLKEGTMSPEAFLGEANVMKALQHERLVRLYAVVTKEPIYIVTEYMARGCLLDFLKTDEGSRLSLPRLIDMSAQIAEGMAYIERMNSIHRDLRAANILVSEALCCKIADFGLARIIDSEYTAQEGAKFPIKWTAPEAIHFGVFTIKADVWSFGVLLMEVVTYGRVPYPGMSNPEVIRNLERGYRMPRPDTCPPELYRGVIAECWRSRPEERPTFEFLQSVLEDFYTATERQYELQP

C[C@H](O)COC[C@H](Cc1ccc(O)cc1)NC(=O)CCc1ccccc1 [NRD135S.E1, (S,S)-2-N(3-O-(propan-2-ol)-1-propyl-4-hydroxybenzene)-3-phenylpropylamide]
effect on activity of BLK tyrosine kinase [1]: capable of activating
extrapolated part of AUC(0-∞) ([2]; male Beagle dog, oral 60 mg/kg): no more than 6%
half-life ([2]; plasma, male Beagle dog, oral 60 mg/kg, terminal decline, read-out: estimated mean half-life): 3 to 4 h
effect on activity of LynB tyrosine kinase [3]: no or substantially no effect
effect on activity of LynA tyrosine kinase [4]: capable of activating

C[C@H](O)COC[C@H](Cc1ccc(O)cc1)NC(=O)CCc1ccccc1 [polymorph 1, (S,S)-2-N(3-O-(propan-2-ol)-1-propyl-4-hydroxybenzene)-3-phenylpropylamide]
LS geometric mean Cmax [2, 6]: 4986 ng/mL
adverse reactions to the oral administration ([2]; male Beagle dog): No adverse reactions
AUC(0-inf) ([2]; male, Beagle, dog, plasma, po, 60 mg/kg, male Beagle dog plasma, oral suspension, target 60 mg/kg, corrected to a 60.0 mg dose, read-out: LS geometric mean AUC(0-∞)): 13200 ng·h/mL
hygroscopicity (GVS, in words) [5]: hygroscopic
change of polymorphic form on GVS cycling [5]: hinted towards form change
weight increase in second adsorption cycle (GVS) ([5]; second adsorption cycle, RH of 40%): > 2%
weight increase to 70% RH (GVS) ([5]; to 70% RH): ~1.3%
weight gain to 80% RH (GVS) [5]: 5.6%

C[C@H](O)COC[C@H](Cc1ccc(O)cc1)NC(=O)CCc1ccccc1 [polymorph 2, (S,S)-2-N(3-O-(propan-2-ol)-1-propyl-4-hydroxybenzene)-3-phenylpropylamide]
bioavailability (in words) ([2]; dog bioavailability tests): exceptionally high
LS geometric mean AUC(0-∞) ([2]; male Beagle dog plasma, oral suspension, target 60 mg/kg, corrected to a 60.0 mg dose): 20064 ng·h/mL
LS geometric mean Cmax [2, 6]: 11088 ng/mL
geometric mean ratio (polymorph 2/polymorph 1) of AUC(0-∞) ([2]; male Beagle dog, oral, dose-corrected, 90% CI 1.35, 1.71): 1.52
geometric mean ratio (polymorph 2/polymorph 1) of Cmax ([2]; male Beagle dog, oral, dose-corrected, 90% CI 1.84, 2.70): 2.22
adverse reactions to the oral administration ([2]; male Beagle dog): No adverse reactions
hygroscopicity (GVS, in words) [5]: only slightly hygroscopic
overall weight loss by the end of the two adsorption/desorption cycles (GVS) ([5]; after two adsorption/desorption cycles): ~1%
change of polymorphic form on GVS cycling ([5]; listed as Form 2): no change of polymorphic form
hygroscopicity (GVS, in words) ([5]; listed as Form 2): only slightly hygroscopic
weight gain to 80% RH (GVS) [5]: 0.6%
weight gain to 80% RH (GVS) ([5]; listed as Form 2): 0.6%
